Legend:
[1] = Pattern of oxidative metabolites in human LMs by HR-MS; type: in vitro ADME; conditions: human LMs incubated with AME
Procedure: (§1) The kinetics of the phase I metabolism of AOH and AME was investigated by incubating human, rat (both 1 mg protein/mL), and porcine LMs (2 mg protein/mL) with 1, 10, 20, 50, and 100 μM AOH or 1, 10, 20, and 50 μM AME based on the protocol by Al-Subeihi et al.[34] The incubation solution contained a final concentration of 3 mM NADPH and 1 mM ascorbic acid in 200 mM Tris–HCl (pH 7.4). After preincubation (37 °C, 1 min, mixing at 250–300 rpm), the toxin stock was added in a 1:100 dilution, resulting in a total DMSO content of 1% and the desired toxin concentration. DMSO was selected for this assay because it is the least inhibitory of the solvents studied by Busby et al. on CYP1A1,[35] the primary enzyme involved in the hydroxylation of AOH and AME.[26] The well-established solubility of the test compounds in DMSO and DMSO-containing aqueous buffers facilitated laboratory work and ensured consistency with existing literature, thereby improving the comparability of results across studies, including those of Pfeiffer and colleagues.[25] In a preliminary investigation, incubation times of 5 and 10 min were chosen because they fall within the linear range of the transformation rate–time relationship, thereby ensuring initial rate conditions (Figure S1). When the selected incubation time (0–10 min) passed, one part of the sample was pipetted into two parts of ice-cold extraction solvent (acetonitrile–methanol, 1:1, v/v) for reaction termination. Subsequently, the samples were placed into the freezer (−20 °C) for at least an hour, centrifuged (15 min, 18,000g, 4 °C), and further diluted in methanol–water (3:7, v/v) prior to LC–MS measurements. In the solvent control, the toxin was substituted with DMSO in the incubation solution. Control incubations were performed without the cofactor NADPH or with heat-inactivated microsomes (98 °C, 10 min, mixing at 300 rpm).
Pooled high-resolution MS (HR-MS) samples were analyzed on a Vanquish UHPLC system (Thermo Fisher Scientific, Waltham, MA, USA) connected to a dual-pressure linear trap-quadrupole Orbitrap mass analyzer (Velos ETD, Thermo Fisher Scientific, Waltham, MA, USA). The heated ESI interface (source heater temperature: 400 °C) was operated in both positive and negative modes. The mobile and stationary phases were the same as those for the targeted analysis. The column compartment temperature was kept at 40 °C. A multistep gradient was applied at a flow rate of 0.4 mL/min and started with rinsing the column for 1 min at 10% eluent B. Then, the organic content was linearly raised to 100% until the 11th minute. Subsequently, the column was purged with 100% eluent B for two additional minutes. […]

[2] = Pattern of oxidative metabolites in porcine LMs by HR-MS; type: in vitro ADME, pig; conditions: for Relative peak area of oxidative metabolite: porcine LMs, normalized to the sum of measured peak areas
Procedure: as §1
Pooled high-resolution MS (HR-MS) samples were analyzed on a Vanquish UHPLC system (Thermo Fisher Scientific, Waltham, MA, USA) connected to a dual-pressure linear trap-quadrupole Orbitrap mass analyzer (Velos ETD, Thermo Fisher Scientific, Waltham, MA, USA). The heated ESI interface (source heater temperature: 400 °C) was operated in both positive and negative modes. The mobile and stationary phases were the same as those for the targeted analysis. The column compartment temperature was kept at 40 °C. A multistep gradient was applied at a flow rate of 0.4 mL/min and started with rinsing the column for 1 min at 10% eluent B. Then, the organic content was linearly raised to 100% until the 11th minute. Subsequently, the column was purged with 100% eluent B for two additional minutes. Finally, the initial eluent composition was reset between minutes 13 and 13.5, followed by a 2 min re-equilibration under these conditions, resulting in a total run time of 15.5 min. Data acquisition and evaluation were performed with the software Skyline (v. 21.1.0.146, MacCoss Lab, Department of Genome Sciences, University of Washington, Seattle, WA, USA), XCalibur (v. 2.2SP1.48), and Chromeleon (v. 7.2.6.; both Thermo Fisher Scientific, Waltham, MA, USA).
As no analytical standards are currently available for the hydroxy (OH) metabolites of AOH and AME, an Alternaria reference mixture containing 4-OH-AOH and 4-OH-AME was used to enable associating peaks with their respective phase I metabolites.

[3] = system: esophageal cells; set-up: method as in PMID 27422292; conditions: cited from earlier work
[4] = Pattern of oxidative metabolites in rat LMs by HR-MS; type: in vitro ADME, Sprague–Dawley rat; conditions: rat LMs incubated with AME
Procedure: The kinetics of the phase I metabolism of AOH and AME was investigated by incubating human, rat (both 1 mg protein/mL), and porcine LMs (2 mg protein/mL) with 1, 10, 20, 50, and 100 μM AOH or 1, 10, 20, and 50 μM AME based on the protocol by Al-Subeihi et al.[34] The incubation solution contained a final concentration of 3 mM NADPH and 1 mM ascorbic acid in 200 mM Tris–HCl (pH 7.4). After preincubation (37 °C, 1 min, mixing at 250–300 rpm), the toxin stock was added in a 1:100 dilution, resulting in a total DMSO content of 1% and the desired toxin concentration. DMSO was selected for this assay because it is the least inhibitory of the solvents studied by Busby et al. on CYP1A1,[35] the primary enzyme involved in the hydroxylation of AOH and AME.[26] The well-established solubility of the test compounds in DMSO and DMSO-containing aqueous buffers facilitated laboratory work and ensured consistency with existing literature, thereby improving the comparability of results across studies, including those of Pfeiffer and colleagues.[25] […]
Pooled high-resolution MS (HR-MS) samples were analyzed on a Vanquish UHPLC system (Thermo Fisher Scientific, Waltham, MA, USA) connected to a dual-pressure linear trap-quadrupole Orbitrap mass analyzer (Velos ETD, Thermo Fisher Scientific, Waltham, MA, USA). […]

[5] = Phase I metabolism kinetics (parent toxin loss) in NADPH-fortified rat liver microsomes, LC-MS/MS; type: in vitro ADME, Sprague–Dawley rat; conditions: for microsomal CLint: male, Sprague-Dawley, rat, liver microsomes, pH 7.4, rat LMs, read-out: CLint (intrinsic clearance); for Concentration decrease: rat LMs
Procedure: (§2) Pooled human LMs and pooled Sprague–Dawley rat hepatic microsomes, both originating from male donors, were purchased from Sigma-Aldrich (St. Louis, MO, USA) and Gibco, Thermo Fisher Scientific (Waltham, MA, USA), respectively. Porcine LMs were prepared according to an in-house-developed protocol based on the publication of Knights et al.[32] The liver of an approximately four-month-old female “Large White” (or “German Edelschwein”) pig was obtained from a local slaughterhouse. After slaughtering, the liver was placed on ice for about an hour, kept in ice-cold 50 mM tris(hydroxymethyl)aminomethane hydrochloride (Tris–HCl) (pH 7.4) for an additional hour while being transported, and processed immediately.
as §1
(§3) The quantification of selected analytes using external calibration (MS parameters listed in Supporting Information Table S1) was conducted on a high-performance liquid chromatographic system (Dionex UltiMate 3000 UHPLC, Dionex Softron GmbH, Germering, Germany) coupled to a triple quadrupole mass spectrometer (TSQ Vantage, Thermo Fisher Scientific, Waltham, MA, USA), equipped with a heated electrospray ionization (ESI) interface. The applied analytical method is based on Puntscher et al.[28],[36] with slight modifications, which are specified below.
(§4) In brief, the Ascentis Express C18 column (10 cm × 2.1 mm, 2.7 μm, Supelco, Munich, DE), equipped with the Phenomenex SecurityGuard (C18 Cartridges, 4 × 2.0 mm ID, Phenomenex Ltd. Deutschland, Aschaffenburg, Germany), served as the stationary phase. Eluent A was aqueous ammonium acetate (5 mM, pH adjusted to 8.6 with a 25% ammonia solution), and eluent B was methanol. During the first minute, the column was kept at 30% eluent B. Subsequently, the eluent B content was linearly raised to 100% within 6 min. Thereafter, the column was washed with 100% eluent B for 1.5 min. Lastly, the column was re-equilibrated at the initial conditions, reaching an overall run time of 10 min. The autosampler compartment was kept at 10 °C, while the column oven temperature was maintained at 30 °C. […]

[6] = Caco-2 cell monolayers; cited from earlier work
[7] = Phase I metabolism kinetics (parent toxin loss) in NADPH-fortified human liver microsomes, LC-MS/MS; type: in vitro ADME; conditions: for microsomal CLint: human, pH 7.4, human LMs, read-out: CLint (intrinsic clearance)
Procedure: as §2, §1, §3, §4

[8] = oral administration, rats; cited from earlier work
[9] = Phase I metabolism kinetics (parent toxin loss) in NADPH-fortified porcine liver microsomes, LC-MS/MS; type: in vitro ADME, pig; conditions: for microsomal CLint: female, Large White, pig, liver microsomes, pH 7.4, porcine LMs, read-out: CLint (intrinsic clearance); for Concentration decrease: porcine LMs
Procedure: as §2, §1, §3, §4

[10] = 10 min incubation with 10 μM AME
[11] = Michaelis–Menten model, ratio Vmax/Km
[12] = linear regression, lower concentration range

COc1cc(O)c2c(=O)oc3cc(O)c(O)c(C)c3c2c1 [2-OH-AME]
relative abundance among phase I metabolites (in words) [1]: most abundant
relative abundance among phase I metabolites (in words) ([2]; porcine LMs incubated with AME): main metabolites
Relative peak area of oxidative metabolite [2, 10]: 30%

COc1cc(O)c2c(=O)oc3c(O)c(O)cc(C)c3c2c1 [4-OH-AME]
relative abundance among phase I metabolites (in words) [1]: most abundant
Relative peak area of oxidative metabolite [2, 10]: less than 20%
genotoxic effects compared with parent compound [3]: less pronounced genotoxic effects

Cc1cc(O)c(O)c2oc(=O)c3c(O)cc(O)cc3c12 [4-OH-AOH]
relative abundance among phase I metabolites (in words) ([2]; porcine LMs incubated with AOH): primary oxidative metabolite
Relative peak area of oxidative metabolite ([2]; 10 min incubation with 10 μM AOH): 50%
genotoxic effects compared with parent compound [3]: less pronounced genotoxic effects

COc1cc2c(c(O)c1O)c(=O)oc1cc(O)cc(C)c12 [8-OH-AME]
relative abundance among phase I metabolites (in words) [1]: small amounts
relative abundance among phase I metabolites (in words) [4]: main metabolites

Cc1cc(O)cc2oc(=O)c3c(O)c(O)c(O)cc3c12 [8-OH-AOH]
relative abundance among phase I metabolites (in words) ([2]; porcine LMs incubated with AOH): small amounts

COc1cc(O)c2c(=O)oc3cc(O)cc(C)c3c2c1 [AME, alternariol 9-O-monomethyl ether]
microsomal CLint [5, 11]: 45.2 µL/min/mg
microsomal CLint [5, 12]: 46.2 µL/min/mg
Concentration decrease ([5]; 1 µM toxin, 5 min): 28%
Concentration decrease ([5]; 1 µM toxin, 10 min): 43%
Concentration decrease ([5]; 10 µM toxin, 5 min): 24%
Concentration decrease ([5]; 10 µM toxin, 10 min): 48%
Concentration decrease ([5]; 20 µM toxin, 5 min): 20%
Concentration decrease ([5]; 20 µM toxin, 10 min): 48%
Concentration decrease ([5]; 50 µM toxin, 5 min): 17%
Concentration decrease ([5]; 50 µM toxin, 10 min): 48%
intestinal absorption [6]: limited intestinal absorption
Concentration decrease ([7]; human LMs, 1 µM toxin, 5 min): 35%
Concentration decrease ([7]; human LMs, 1 µM toxin, 10 min): 59%
Concentration decrease ([7]; human LMs, 10 µM toxin, 5 min): 26%
Concentration decrease ([7]; human LMs, 10 µM toxin, 10 min): 19%
Concentration decrease ([7]; human LMs, 20 µM toxin, 5 min): 8%
Concentration decrease ([7]; human LMs, 20 µM toxin, 10 min): 26%
Concentration decrease ([7]; human LMs, 50 µM toxin, 5 min): 2%
Concentration decrease ([7]; human LMs, 50 µM toxin, 10 min): 47%
Vmax (maximum transformation rate) ([7]; human LMs, within 10 min, Michaelis–Menten model): 772 pmol/mg/min
microsomal CLint ([7]; male, liver microsomes, Michaelis–Menten model, ratio Vmax/Km): 26.3 µL/min/mg
microsomal CLint ([7]; male, liver microsomes, linear regression, lower concentration range): 15.8 µL/min/mg
Km ([7]; male, liver microsomes, pH 7.4, human LMs 1 mg protein/mL, NADPH, within 10 min, Michaelis–Menten model, read-out: Km (Michaelis constant)): 29.4 µM
absorbed fraction [8]: less than 10%
microsomal CLint [9, 11]: 19.5 µL/min/mg
microsomal CLint [9, 12]: 19 µL/min/mg
Concentration decrease ([9]; 1 µM toxin, 5 min): 16%
Concentration decrease ([9]; 1 µM toxin, 10 min): 38%
Concentration decrease ([9]; 10 µM toxin, 5 min): 13%
Concentration decrease ([9]; 10 µM toxin, 10 min): 24%
Concentration decrease ([9]; 20 µM toxin, 5 min): 19%
Concentration decrease ([9]; 20 µM toxin, 10 min): 30%
Concentration decrease ([9]; 50 µM toxin, 5 min): 20%
Concentration decrease ([9]; 50 µM toxin, 10 min): 27%
